Experiments:
skin scratch model rat = assay: Treatment of wound of skin scratch model DM rat; type: in vivo; details: applied daily on wound of left hindfoot; for time until wound healed: mecobalamin H1 group (wound without administration healed too), epalrestat M1 group (without administration healed on eighteenth day)
Procedure: 30 specific pathogen free (SPF) Sprague Dawley (SD) male rats aged 6-8 weeks old (weight 190 g or so) are used to construct as the DM rat model. Specifically, the STZ solution is prepared and used, and the prepared STZ solution is used within 10 minutes. The STZ solution is injected into left lower abdomens of the rats with a single dose of 55 milligrams per kilogram (mg/kg). After a week of the intraperitoneal injection of the STZ solution, the rats are in abrosia but can have water for 12 hours (h), thereafter blood glucose of the rats is detected, and the rats with blood glucose value above 12.6 […] are selected as the DM rat model. The 30 SPF SD male rats are all constructed as the DM rat model, 12 rats died before diabetic foot administration, and 2 rats died during the administration but not appearing effectiveness. Six DM model rats are selected for normal feeding for four weeks. After anesthesia, round skin wounds with each diameter of 5 mm are created on dorsal sides of hindfoots of the DM model rats to generate foot gangrene, as shown in FIG. 2. And then, the DM model rats continue to be fed regularly and the skin wounds of the DM model rats are observed every day. Therapeutic drug of mecobalamin (H1 group) is applied daily on the wound disposed on the left hindfoot of the skin scratch model rat, and then the wound of the model rat is observed. […] Therapeutic drug of epalrestat (M1 group) is applied daily on the wound disposed on the left hindfoot of the skin scratch model rat, and then the wound of the model rat is observed. After 13 days of continuous administration, the wound healed, and at the same time, the wound of the skin scratch model rat without administration healed on the eighteenth day. […] The hydrogels (T1 group, T2 group, T3 group, T4 group) are applied daily on the wounds disposed on the left hindfoots of four skin scratch model rats, and then the wounds of the 4 model rats are observed. […]

[1] = test system: Staphylococcus aureus model rat; assay: Treatment of wound (foot gangrene) of Staphylococcus aureus model DM rat; type: in vivo; details: applied daily on wound of left hindfoot
Procedure: 30 specific pathogen free (SPF) Sprague Dawley (SD) male rats aged 6-8 weeks old (weight 190 g or so) are used to construct as the DM rat model. Specifically, the STZ solution is prepared and used, and the prepared STZ solution is used within 10 minutes. The STZ solution is injected into left lower abdomens of the rats with a single dose of 55 milligrams per kilogram (mg/kg). After a week of the intraperitoneal injection of the STZ solution, the rats are in abrosia but can have water for 12 hours (h), thereafter blood glucose of the rats is detected, and the rats with blood glucose value above 12.6 […] are selected as the DM rat model. The 30 SPF SD male rats are all constructed as the DM rat model, 12 rats died before diabetic foot administration, and 2 rats died during the administration but not appearing effectiveness. Six DM model rats are selected. At the third week, dorsal sides of hindfoots of the DM model rats are subcutaneously injected 10 μL of suspension containing more than […] Staphylococcus aureus, thereby obtaining a DM animal model with foot infection (also referred to as extremity infection). It can be seen from FIG. 1, on the sixth day, spontaneous foot gangrene occurs, and on the seventh day and eighth day, the foot gangrene is gradually obvious. […]

With `CC(/C=C1\SC(=S)N(CC(=O)O)C1=O)=C\c1ccccc1` [epalrestat, Epalrestat] the “time until wound healed” value (skin scratch model rat) was 13 days.

`C/C1=C2/[N-][C@H]([C@H](CC(N)=O)[C@@]2(C)CCC(=O)NC[C@@H](C)OP(=O)([O-])O[C@H]2[C@@H](O)[C@@H](n3cnc4cc(C)c(C)cc43)O[C@@H]2CO)[C@]2(C)N=C(/C(C)=C3N=C(/C=C4N=C1[C@@H](CCC(N)=O)C\4(C)C)[C@@H](CCC(N)=O)[C@]\3(C)CC(N)=O)[C@@H](CCC(N)=O)[C@]2(C)CC(N)=O.[CH3-].[Co+3]` [mecobalamin, Mecobalamin] was tested, and the “effect on wound healing” value (skin scratch model rat; H1, M1, T1-T4 groups) was “no significant promoting effect”, the “time until wound healed” value (skin scratch model rat) was 11 days and the “time of administration until wound / foot gangrene healed” value ([1]; mecobalamin H4 group (untreated wound healed as well), hydrogel T10 group (control healed after 7 days)) was 5 days. The “healing of treated wound compared with untreated wound / control group” value ([1]; mecobalamin H4 group, hydrogel T10 group, same area of foot gangrene) was “no significant difference”.

Reference: patent publication US20240399032A1, “HYDROGEL FOR PROMOTING GROWTH OF MESENCHYMAL STEM CELLS, AND PREPARATION METHOD AND APPLICATION METHOD THEREOF” (The Fifth People's Hospital of Hainan Province, priority 2023, published 2024)
